How the values were obtained:
Test in all cases: Histone peptide microarray
Type in all cases: binding, human
[1] = system: AIRE (PP); details: sheet "Array Heatmap", total n = 4; for Array Heatmap value (peptide array signal): AIRE (PP), each array performed twice
Summary of the method: (§1)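 Histone peptide library (293 synthetic peptides, single/combinatorial PTMs) arrayed and probed with 0.5 μM purified GST-PHD domain; optimized protocol; quadruplicate mean and SD reported.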

[2] = system: BAZ2B; details: sheet "Array Heatmap", total n = 4; for Array Heatmap value (peptide array signal): BAZ2B, each array performed twice
Summary of the method: as §1

[3] = system: BPTF (PB); details: sheet "Array Heatmap", total n = 4; for Array Heatmap value (peptide array signal): BPTF (PB), each array performed twice
Summary of the method: as §1

[4] = system: CHD4 (PPCC); details: sheet "Array Heatmap", total n = 4; for Array Heatmap value (peptide array signal): CHD4 (PPCC), each array performed twice
Summary of the method: as §1

[5] = system: CHD5 (PCC); details: sheet "Array Heatmap", total n = 4; for Array Heatmap value (peptide array signal): CHD5 (PCC), each array performed twice
Summary of the method: as §1

[6] = system: CHD5 (PPCC); details: sheet "Array Heatmap", total n = 4; for Array Heatmap value (peptide array signal): CHD5 (PPCC), each array performed twice
Summary of the method: as §1

[7] = system: DIDO1; details: sheet "Array Heatmap", total n = 4; for Array Heatmap value (peptide array signal): DIDO1, each array performed twice
Summary of the method: as §1

[8] = system: DPF2 (PPC2W2); details: sheet "Array Heatmap", total n = 4; for Array Heatmap value (peptide array signal): DPF2 (PPC2W2), each array performed twice
Summary of the method: as §1

[9] = system: ING1; details: sheet "Array Heatmap", total n = 4; for Array Heatmap value (peptide array signal): ING1, each array performed twice
Summary of the method: as §1

[10] = system: ING2; details: sheet "Array Heatmap", total n = 4; for Array Heatmap value (peptide array signal): ING2, each array performed twice
Summary of the method: as §1

[11] = system: ING3; details: sheet "Array Heatmap", total n = 4; for Array Heatmap value (peptide array signal): ING3, each array performed twice
Summary of the method: as §1

[12] = system: ING4; details: sheet "Array Heatmap", total n = 4; for Array Heatmap value (peptide array signal): ING4, each array performed twice
Summary of the method: as §1

[13] = system: ING5; details: sheet "Array Heatmap", total n = 4; for Array Heatmap value (peptide array signal): ING5, each array performed twice
Summary of the method: as §1

[14] = system: KDM4C (TTP); details: sheet "Array Heatmap", total n = 4; for Array Heatmap value (peptide array signal): KDM4C (TTP), each array performed twice
Summary of the method: as §1

[15] = system: KDM5A (1); details: sheet "Array Heatmap", total n = 4; for Array Heatmap value (peptide array signal): KDM5A (1), each array performed twice
Summary of the method: as §1

[16] = system: KDM5A (3); details: sheet "Array Heatmap", total n = 4; for Array Heatmap value (peptide array signal): KDM5A (3), each array performed twice
Summary of the method: as §1

[17] = system: KDM5B (1); details: sheet "Array Heatmap", total n = 4; for Array Heatmap value (peptide array signal): KDM5B (1), each array performed twice
Summary of the method: as §1

[18] = system: KDM5B (3); details: sheet "Array Heatmap", total n = 4; for Array Heatmap value (peptide array signal): KDM5B (3), each array performed twice
Summary of the method: as §1

[19] = system: KDM7A; details: sheet "Array Heatmap", total n = 4; for Array Heatmap value (peptide array signal): KDM7A, each array performed twice
Summary of the method: as §1

[20] = system: MLL5; details: sheet "Array Heatmap", total n = 4; for Array Heatmap value (peptide array signal): MLL5, each array performed twice
Summary of the method: as §1

[21] = system: MORC3 (CW); details: sheet "Array Heatmap", total n = 4; for Array Heatmap value (peptide array signal): MORC3 (CW), each array performed twice
Summary of the method: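 A peptide microarray holding 293 synthetic histone peptides with individual or combinatorial modifications was probed with each GST-PHD protein at 0.5 μM. Values represent mean intensity (±SD) from four replicates.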

[22] = system: PHF13; details: sheet "Array Heatmap", total n = 4; for Array Heatmap value (peptide array signal): PHF13, each array performed twice
Summary of the method: as §1

[23] = system: PHF21A; details: sheet "Array Heatmap", total n = 4; for Array Heatmap value (peptide array signal): PHF21A, each array performed twice
Summary of the method: as §1

[24] = system: PHF23; details: sheet "Array Heatmap", total n = 4; for Array Heatmap value (peptide array signal): PHF23, each array performed twice
Summary of the method: as §1

[25] = system: PHF2; details: sheet "Array Heatmap", total n = 4; for Array Heatmap value (peptide array signal): PHF2, each array performed twice
Summary of the method: as §1

[26] = system: PHF8; details: sheet "Array Heatmap", total n = 4; for Array Heatmap value (peptide array signal): PHF8, each array performed twice
Summary of the method: as §1

[27] = system: PHRF1 (RP); details: sheet "Array Heatmap", total n = 4; for Array Heatmap value (peptide array signal): PHRF1 (RP), each array performed twice
Summary of the method: as §1

[28] = system: RAG2; details: sheet "Array Heatmap", total n = 4; for Array Heatmap value (peptide array signal): RAG2, each array performed twice
Summary of the method: as §1

[29] = system: SP140L; details: sheet "Array Heatmap", total n = 4; for Array Heatmap value (peptide array signal): SP140L, each array performed twice
Summary of the method: as §1

[30] = system: TAF3; details: sheet "Array Heatmap", total n = 4; for Array Heatmap value (peptide array signal): TAF3, each array performed twice
Summary of the method: as §1

[31] = system: TRIM66 (PB); details: sheet "Array Heatmap", total n = 4; for Array Heatmap value (peptide array signal): TRIM66 (PB), each array performed twice
Summary of the method: as §1

[32] = GST-tagged reader, histone peptide array

H3K18ac (1-32): H3 1-32
Array Heatmap value (peptide array signal) [1]: 0.5458 | Array Heatmap value (peptide array signal) [2]: 0.4901 | Array Heatmap value (peptide array signal) [3]: 0.3434 | Array Heatmap value (peptide array signal) [4]: 0.5307 | Array Heatmap value (peptide array signal) [5]: 0.7075 | Array Heatmap value (peptide array signal) [6]: 0.5424 | Array Heatmap value (peptide array signal) [7]: 0.6775 | Array Heatmap value (peptide array signal) [8]: 0.7444 | Array Heatmap value (peptide array signal) [9]: 0.5268 | Array Heatmap value (peptide array signal) [10]: 0.6127 | Array Heatmap value (peptide array signal) [11]: 0.4519 | Array Heatmap value (peptide array signal) [12]: 0.4589 | Array Heatmap value (peptide array signal) [13]: 0.3576 | Array Heatmap value (peptide array signal) [14]: 0.505 | Array Heatmap value (peptide array signal) [15]: 0.4813 | Array Heatmap value (peptide array signal) [16]: 0.5027 | Array Heatmap value (peptide array signal) [17]: 0.7307 | Array Heatmap value (peptide array signal) [18]: 0.448 | Array Heatmap value (peptide array signal) [19]: 0.3927 | Array Heatmap value (peptide array signal) [20]: 0.5655 | Array Heatmap value (peptide array signal) [21]: 0.4635 | Array Heatmap value (peptide array signal) [22]: 0.586 | Array Heatmap value (peptide array signal) [23]: 0.434 | Array Heatmap value (peptide array signal) [24]: 0.5317 | Array Heatmap value (peptide array signal) [25]: 0.4084 | Array Heatmap value (peptide array signal) [26]: 0.3597 | Array Heatmap value (peptide array signal) [27]: 0.6228 | Array Heatmap value (peptide array signal) [28]: 0.2621 | Array Heatmap value (peptide array signal) [29]: 0.3664 | Array Heatmap value (peptide array signal) [30]: 0.2816 | Array Heatmap value (peptide array signal) [31]: 0.5982

H2BK5me1: H2B 1-24 [Peptide H2BK5me1]
Array Heatmap value (peptide array signal) [1]: 0.3816 | Array Heatmap value (peptide array signal) [2]: 0.4388 | Array Heatmap value (peptide array signal) [3]: 0.3333 | Array Heatmap value (peptide array signal) [4]: 0.5519 | Array Heatmap value (peptide array signal) [5]: 0.7328 | Array Heatmap value (peptide array signal) [6]: 0.5218 | Array Heatmap value (peptide array signal) [7]: 0.7058 | Array Heatmap value (peptide array signal) [8]: 0.6733 | Array Heatmap value (peptide array signal) [9]: 0.5552 | Array Heatmap value (peptide array signal) [10]: 0.6238 | Array Heatmap value (peptide array signal) [11]: 0.4514 | Array Heatmap value (peptide array signal) [12]: 0.4312 | Array Heatmap value (peptide array signal) [13]: 0.3396 | Array Heatmap value (peptide array signal) [14]: 0.4441 | Array Heatmap value (peptide array signal) [15]: 0.4431 | Array Heatmap value (peptide array signal) [16]: 0.4387 | Array Heatmap value (peptide array signal) [17]: 0.6308 | Array Heatmap value (peptide array signal) [18]: 0.4454 | Array Heatmap value (peptide array signal) [19]: 0.316 | Array Heatmap value (peptide array signal) [20]: 0.5838 | Array Heatmap value (peptide array signal) [21]: 0.347 | Array Heatmap value (peptide array signal) [22]: 0.5791 | Array Heatmap value (peptide array signal) [23]: 0.4511 | Array Heatmap value (peptide array signal) [24]: 0.5121 | Array Heatmap value (peptide array signal) [25]: 0.5195 | Array Heatmap value (peptide array signal) [26]: 0.341 | Array Heatmap value (peptide array signal) [27]: 0.4244 | Array Heatmap value (peptide array signal) [28]: 0.242 | Array Heatmap value (peptide array signal) [29]: 0.3691 | Array Heatmap value (peptide array signal) [30]: 0.2612 | Array Heatmap value (peptide array signal) [31]: 0.6209

H3K14me2: H3 1-20 [Peptide H3K14me2]
Array Heatmap signal, AIRE (PP) [1, 32]: 0.5905 | Array Heatmap signal, BAZ2B [2, 32]: 0.5017 | Array Heatmap signal, BPTF (PB) [3, 32]: 0.3583 | Array Heatmap signal, CHD4 (PPCC) [4, 32]: 0.6389 | Array Heatmap signal, CHD5 (PCC) [5, 32]: 0.8497 | Array Heatmap signal, CHD5 (PPCC) [6, 32]: 0.5851 | Array Heatmap signal, DIDO1 [7, 32]: 0.7549 | Array Heatmap signal, DPF2 (PPC2W2) [8, 32]: 0.7618 | Array Heatmap signal, ING1 [9, 32]: 0.5677 | Array Heatmap signal, ING2 [10, 32]: 0.6018 | Array Heatmap signal, ING3 [11, 32]: 0.5043 | Array Heatmap signal, ING4 [12, 32]: 0.4752 | Array Heatmap signal, ING5 [13, 32]: 0.3792 | Array Heatmap signal, KDM4C (TTP) [14, 32]: 0.5414 | Array Heatmap signal, KDM5A (1) [15, 32]: 0.5072 | Array Heatmap signal, KDM5A (3) [16, 32]: 0.5469 | Array Heatmap signal, KDM5B (1) [17, 32]: 0.6811 | Array Heatmap signal, KDM5B (3) [18, 32]: 0.5212 | Array Heatmap signal, KDM7A [19, 32]: 0.4126 | Array Heatmap signal, MLL5 [20, 32]: 0.5639 | Array Heatmap signal, MORC3 (CW) [21, 32]: 0.4726 | Array Heatmap signal, PHF13 [22, 32]: 0.6476 | Array Heatmap signal, PHF21A [23, 32]: 0.4799 | Array Heatmap signal, PHF23 [24, 32]: 0.5616 | Array Heatmap signal, PHF2 [25, 32]: 0.4838 | Array Heatmap signal, PHF8 [26, 32]: 0.3636 | Array Heatmap signal, PHRF1 (RP) [27, 32]: 0.7403 | Array Heatmap signal, RAG2 [28, 32]: 0.2574 | Array Heatmap signal, SP140L [29, 32]: 0.3561 | Array Heatmap signal, TAF3 [30, 32]: 0.2982 | Array Heatmap signal, TRIM66 (PB) [31, 32]: 0.6527
